Paper PMC5697638, “Identification of a Potent Phosphoinositide 3‐Kinase Pan Inhibitor Displaying a Strategic Carboxylic Acid Group and Development of Its Prodrugs” (Chemmedchem, 2017)

Key:
Format in all cases: biochemical
hPI3Kδ (PIK3CD/PIK3R1) = molecular target: T1, hPI3Kδ (PIK3CD/PIK3R1) (Homo sapiens, UniProt O00329); assay: lipid kinase assay (ADP-Glo), PI3Kδ; conditions: for inhibition at 1 µM: determined at 1 μM, at least triplicate, read-out: Inhibitory activity, PI3K isoform δ; for IC50: Table 2, mean of at least three determinations, 95 % confidence intervals
T1 construct: purchased ProQinase, Germany 1162–1165‐1
T1 sequence (O00329 whole entry, canonical isoform): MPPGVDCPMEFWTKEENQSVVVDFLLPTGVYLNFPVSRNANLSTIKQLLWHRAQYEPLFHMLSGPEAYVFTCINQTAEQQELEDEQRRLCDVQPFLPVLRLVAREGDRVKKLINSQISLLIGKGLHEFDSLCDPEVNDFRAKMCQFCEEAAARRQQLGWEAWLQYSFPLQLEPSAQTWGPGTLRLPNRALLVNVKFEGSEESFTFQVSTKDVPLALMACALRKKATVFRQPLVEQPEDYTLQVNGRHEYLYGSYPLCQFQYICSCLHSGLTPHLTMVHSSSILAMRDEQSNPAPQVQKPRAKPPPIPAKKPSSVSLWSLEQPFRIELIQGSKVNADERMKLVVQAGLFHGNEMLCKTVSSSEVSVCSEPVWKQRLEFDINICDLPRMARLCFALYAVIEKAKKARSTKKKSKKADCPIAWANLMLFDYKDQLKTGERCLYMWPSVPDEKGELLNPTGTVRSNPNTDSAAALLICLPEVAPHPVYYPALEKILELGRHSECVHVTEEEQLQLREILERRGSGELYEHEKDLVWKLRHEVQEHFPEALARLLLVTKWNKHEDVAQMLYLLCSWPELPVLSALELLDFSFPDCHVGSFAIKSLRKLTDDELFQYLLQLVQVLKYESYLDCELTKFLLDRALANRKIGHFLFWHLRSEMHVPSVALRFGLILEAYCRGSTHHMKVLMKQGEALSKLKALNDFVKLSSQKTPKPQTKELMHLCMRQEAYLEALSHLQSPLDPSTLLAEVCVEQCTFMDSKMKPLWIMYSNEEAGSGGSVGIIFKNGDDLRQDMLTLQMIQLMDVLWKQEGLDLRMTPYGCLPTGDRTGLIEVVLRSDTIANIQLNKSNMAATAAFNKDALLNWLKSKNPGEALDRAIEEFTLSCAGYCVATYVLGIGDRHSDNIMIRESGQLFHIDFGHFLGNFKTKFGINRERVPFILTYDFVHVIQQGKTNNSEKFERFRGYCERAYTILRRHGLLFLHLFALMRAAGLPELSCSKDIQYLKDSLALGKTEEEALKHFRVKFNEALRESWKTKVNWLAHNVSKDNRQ
T1 sequence (P27986 whole entry partner, canonical isoform): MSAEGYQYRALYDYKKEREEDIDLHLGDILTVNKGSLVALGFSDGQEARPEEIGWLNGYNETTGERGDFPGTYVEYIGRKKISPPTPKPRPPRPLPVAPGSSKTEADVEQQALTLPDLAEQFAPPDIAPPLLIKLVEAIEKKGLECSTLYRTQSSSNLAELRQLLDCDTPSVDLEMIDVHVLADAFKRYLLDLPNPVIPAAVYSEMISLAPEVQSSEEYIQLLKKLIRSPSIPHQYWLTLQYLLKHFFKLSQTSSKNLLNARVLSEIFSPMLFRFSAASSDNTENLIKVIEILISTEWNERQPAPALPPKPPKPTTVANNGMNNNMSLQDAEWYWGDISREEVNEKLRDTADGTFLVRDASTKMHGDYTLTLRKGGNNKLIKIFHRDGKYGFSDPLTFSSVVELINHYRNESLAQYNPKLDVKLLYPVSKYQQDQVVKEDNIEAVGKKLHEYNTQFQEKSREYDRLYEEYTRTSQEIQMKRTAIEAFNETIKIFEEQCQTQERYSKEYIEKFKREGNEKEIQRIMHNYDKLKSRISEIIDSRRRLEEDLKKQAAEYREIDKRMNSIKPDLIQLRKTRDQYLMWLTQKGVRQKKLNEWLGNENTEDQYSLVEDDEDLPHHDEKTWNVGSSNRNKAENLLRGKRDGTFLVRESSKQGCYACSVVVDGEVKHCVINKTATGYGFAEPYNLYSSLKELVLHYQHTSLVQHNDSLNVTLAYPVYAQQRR
Description: (§1) In vitro selection, lipid kinase assay: To determine the inhibitory activity of the new molecular entities on PI3K enzyme, a lipid kinase assay was performed: recombinant proteins (30 ng), human PI3Kα (PIK3CA/PIK3R1, #1161‐1165‐1 ProQinase–Germany), hPI3Kβ (PIK3CB wt/PIK3R1, #1168‐1165‐1 ProQinase, Germany), hPI3Kγ (PIK3CG, #1163‐0000‐1 ProQinase, Germany), hPI3Kδ (PIK3CD/PIK3R1, #1162–1165‐1 ProQinase, Germany), hPI3K‐C2α (PIK3C2A, #14‐906 Merck Millipore_Merck KGaA, Germany), hPI3K‐C2β (PIK3C2B, #14‐907 Merck Millipore_Merck KGaA, Germany), hPI3K‐c2γ (PIK3C2G, #1207‐0000‐1 ProQinase, Germany), and hVps34 (PIK3C3, #1160‐0000‐1 ProQinase, Germany), were incubated in kinase buffer {12.5 μL; 20 mM Tris‐HCl pH 7.5, 10 mM MgCl2, 10 μM ATP, 0.05 mg mL^−1 BSA, 0.5 mM EDTA, 5 mM HEPES pH 7.5, for PI3Kα,PI3Kβ, PI3Kγ, PI3Kδ, PI3KC‐2α, and PI3KC‐2γ; 15 mM MnCl2, 5 mM EGTA, 100 μM ATP, 50 mM HEPES pH 7.5, 100 mM NaCl, and 0.03 % CHAPS for PI3K‐C2β and VPS34 {BSA=bovine serum albumin; EDTA=ethylenediaminetetraacetic acid; HEPES=4‐(2‐hydroxyethyl)‐1‐piperazineethanesulfonic acid; EGTA=ethylene glycol‐bis(2‐aminoethylether)‐N,N,N′,N′‐tetraacetic acid; CHAPS=3‐[(3‐cholamidopropyl)dimethylammonio]‐1‐propanesulfonate}. In the reaction, the ATP concentration used for different PI3Ks was defined on the basis of the Michaelis–Menten kinetics of each enzyme, provided by the supplier. Reaction was performed in presence of 0.5 mg mL^−1 lipid micelles (1:1 phosphatidylinositol/phosphatidylserine) and in the absence (DMSO alone) or presence of increasing concentrations of each compound (from 0.1 nM to 30 μM). The mixture was kept at room temperature (RT) for 30 min for PI3Kα, PI3Kβ, PI3Kγ, PI3Kδ, PI3KC‐2α, and PI3KC‐2γ and for 1 h for PI3K‐C2β and PI3K‐C3. The amount of ADP produced in the reaction was measured by using the ADP‐Glo Kinase Assay kit from Promega (#V9102) and a luminescence reader (Glomax multi detection system, Promega, model number 9301‐010).
(§2) The residual PI3K lipid kinase activity in the presence of each molecule at different concentrations was related to the control, intended as the recombinant protein in the presence of DMSO alone and was expressed as a percentage. To derive the IC50 value, all data (% of lipid kinase activity) were plotted on a dose–response curve (Graph Pad software), and the IC50 was calculated by using nonlinear regression fit (equation [log agonist] versus response).

hPI3Kγ (PIK3CG) = molecular target: T2, hPI3Kγ (PIK3CG) (Homo sapiens, UniProt P48736); assay: lipid kinase assay (ADP-Glo), PI3Kγ; conditions: for inhibition at 1 µM: determined at 1 μM, at least triplicate, read-out: Inhibitory activity, PI3K isoform γ; for IC50: Table 2, mean of at least three determinations, 95 % confidence intervals
T2 construct: purchased ProQinase, Germany 1163‐0000‐1
T2 sequence (P48736 whole entry, canonical isoform): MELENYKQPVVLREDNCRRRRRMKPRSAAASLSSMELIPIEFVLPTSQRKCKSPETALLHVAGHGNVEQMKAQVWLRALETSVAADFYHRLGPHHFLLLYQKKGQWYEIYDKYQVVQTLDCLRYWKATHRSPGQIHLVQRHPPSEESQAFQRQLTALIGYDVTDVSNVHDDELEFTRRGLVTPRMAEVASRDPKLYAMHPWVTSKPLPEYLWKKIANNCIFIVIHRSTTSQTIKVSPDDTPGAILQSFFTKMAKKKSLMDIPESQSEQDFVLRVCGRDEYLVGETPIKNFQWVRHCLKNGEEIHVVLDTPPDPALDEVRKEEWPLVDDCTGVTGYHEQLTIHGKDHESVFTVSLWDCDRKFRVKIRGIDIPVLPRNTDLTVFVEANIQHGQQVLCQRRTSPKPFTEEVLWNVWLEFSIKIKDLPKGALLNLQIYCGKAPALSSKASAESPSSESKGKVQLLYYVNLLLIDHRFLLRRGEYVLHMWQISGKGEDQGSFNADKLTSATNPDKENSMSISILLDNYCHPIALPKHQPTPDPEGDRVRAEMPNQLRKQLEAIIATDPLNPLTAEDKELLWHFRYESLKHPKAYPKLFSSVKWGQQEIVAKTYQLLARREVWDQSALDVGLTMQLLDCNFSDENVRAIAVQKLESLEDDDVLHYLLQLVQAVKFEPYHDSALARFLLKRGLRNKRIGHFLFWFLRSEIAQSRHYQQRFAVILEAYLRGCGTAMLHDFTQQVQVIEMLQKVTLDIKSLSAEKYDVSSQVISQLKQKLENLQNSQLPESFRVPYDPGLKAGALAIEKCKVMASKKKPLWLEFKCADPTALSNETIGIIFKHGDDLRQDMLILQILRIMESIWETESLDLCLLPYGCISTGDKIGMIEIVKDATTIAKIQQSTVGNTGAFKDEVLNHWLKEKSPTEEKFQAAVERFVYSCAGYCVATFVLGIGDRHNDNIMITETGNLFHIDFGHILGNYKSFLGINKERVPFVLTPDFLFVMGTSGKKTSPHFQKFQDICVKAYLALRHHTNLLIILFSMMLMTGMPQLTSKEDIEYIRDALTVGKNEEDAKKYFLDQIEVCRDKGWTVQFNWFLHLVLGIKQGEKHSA
Description: as §1, §2

[1] = molecular target: T3, human PI3Kα (PIK3CA/PIK3R1) (Homo sapiens, UniProt P42336); assay: lipid kinase assay (ADP-Glo), PI3Kα; conditions: for inhibition at 1 µM: determined at 1 μM, at least triplicate, read-out: Inhibitory activity, PI3K isoform α; for IC50: Table 2, mean of at least three determinations, 95 % confidence intervals, read-out: IC50 PI3Kα
T3 construct: purchased ProQinase, Germany 1161‐1165‐1
T3 sequence (P42336 whole entry, canonical isoform): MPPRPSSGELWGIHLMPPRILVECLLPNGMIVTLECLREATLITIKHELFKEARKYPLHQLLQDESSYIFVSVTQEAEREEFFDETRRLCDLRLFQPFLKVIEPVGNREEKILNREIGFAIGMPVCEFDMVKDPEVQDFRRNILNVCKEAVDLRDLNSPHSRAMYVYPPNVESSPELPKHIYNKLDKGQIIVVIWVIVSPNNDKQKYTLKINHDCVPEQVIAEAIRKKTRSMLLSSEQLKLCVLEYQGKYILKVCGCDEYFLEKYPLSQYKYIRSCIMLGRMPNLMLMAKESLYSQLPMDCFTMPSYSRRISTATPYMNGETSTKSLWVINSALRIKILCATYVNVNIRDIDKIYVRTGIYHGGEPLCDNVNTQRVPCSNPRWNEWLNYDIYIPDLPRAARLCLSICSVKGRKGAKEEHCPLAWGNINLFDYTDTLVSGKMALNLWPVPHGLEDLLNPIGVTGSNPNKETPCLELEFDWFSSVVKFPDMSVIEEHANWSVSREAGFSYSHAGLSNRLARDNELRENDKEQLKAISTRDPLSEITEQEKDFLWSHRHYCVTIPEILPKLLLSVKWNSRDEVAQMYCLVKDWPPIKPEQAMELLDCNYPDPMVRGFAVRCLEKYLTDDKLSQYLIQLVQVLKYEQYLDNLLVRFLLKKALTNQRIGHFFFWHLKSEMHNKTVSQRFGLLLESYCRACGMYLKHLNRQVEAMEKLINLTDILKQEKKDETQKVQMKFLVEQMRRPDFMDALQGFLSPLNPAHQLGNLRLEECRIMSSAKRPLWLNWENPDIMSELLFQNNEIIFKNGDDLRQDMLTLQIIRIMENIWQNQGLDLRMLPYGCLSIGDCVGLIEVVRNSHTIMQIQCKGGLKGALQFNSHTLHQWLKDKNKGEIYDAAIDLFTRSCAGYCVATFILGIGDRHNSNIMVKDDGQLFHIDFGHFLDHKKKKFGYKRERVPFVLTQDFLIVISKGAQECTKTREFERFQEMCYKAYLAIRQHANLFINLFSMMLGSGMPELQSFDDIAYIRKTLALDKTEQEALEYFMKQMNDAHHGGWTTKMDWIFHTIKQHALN
T3 sequence (P27986 whole entry partner, canonical isoform): as the sequence (P27986 whole entry partner, canonical isoform) above
Description: as §1, §2

[2] = molecular target: T4, hPI3Kβ (PIK3CB wt/PIK3R1) (Homo sapiens, UniProt P42338); assay: lipid kinase assay (ADP-Glo), PI3Kβ; conditions: for inhibition at 1 µM: determined at 1 μM, at least triplicate, read-out: Inhibitory activity, PI3K isoform β; for IC50: Table 2, mean of at least three determinations, 95 % confidence intervals
T4 construct: purchased ProQinase, Germany 1168‐1165‐1
T4 sequence (P42338 whole entry, canonical isoform): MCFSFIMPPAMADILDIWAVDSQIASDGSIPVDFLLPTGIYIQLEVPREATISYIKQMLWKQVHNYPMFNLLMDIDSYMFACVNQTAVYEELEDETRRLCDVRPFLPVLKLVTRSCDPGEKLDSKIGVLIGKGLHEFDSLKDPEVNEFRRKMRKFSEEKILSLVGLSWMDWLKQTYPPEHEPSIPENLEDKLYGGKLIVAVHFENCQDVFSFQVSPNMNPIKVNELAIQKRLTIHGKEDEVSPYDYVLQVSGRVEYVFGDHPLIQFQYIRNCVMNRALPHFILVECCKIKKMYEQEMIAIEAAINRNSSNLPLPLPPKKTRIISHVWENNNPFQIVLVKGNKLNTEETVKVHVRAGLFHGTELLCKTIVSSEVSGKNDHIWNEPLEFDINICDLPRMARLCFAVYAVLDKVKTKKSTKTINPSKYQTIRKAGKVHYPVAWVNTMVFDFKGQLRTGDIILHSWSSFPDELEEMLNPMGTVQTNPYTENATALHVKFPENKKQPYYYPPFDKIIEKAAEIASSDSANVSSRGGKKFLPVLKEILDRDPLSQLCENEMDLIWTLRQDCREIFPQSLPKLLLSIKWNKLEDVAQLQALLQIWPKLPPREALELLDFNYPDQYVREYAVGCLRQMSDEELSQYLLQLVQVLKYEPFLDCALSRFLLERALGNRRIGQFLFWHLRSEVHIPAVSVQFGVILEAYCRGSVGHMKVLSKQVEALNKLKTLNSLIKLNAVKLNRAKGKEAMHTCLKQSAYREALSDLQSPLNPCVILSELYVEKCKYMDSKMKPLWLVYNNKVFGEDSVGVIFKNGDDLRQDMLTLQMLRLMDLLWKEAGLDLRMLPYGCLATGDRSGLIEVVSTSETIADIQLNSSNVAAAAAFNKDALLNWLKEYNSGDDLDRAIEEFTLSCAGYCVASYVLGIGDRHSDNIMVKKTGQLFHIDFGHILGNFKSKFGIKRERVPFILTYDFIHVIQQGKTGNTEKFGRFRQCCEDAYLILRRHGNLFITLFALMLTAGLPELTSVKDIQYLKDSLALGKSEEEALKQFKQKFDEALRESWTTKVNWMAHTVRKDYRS
T4 sequence (P27986 whole entry partner, canonical isoform): as the sequence (P27986 whole entry partner, canonical isoform) above
Description: as §1, §2

Row | SMILES | inhibition at 1 µM (hPI3Kδ (PIK3CD/PIK3R1)) [%] | inhibition at 1 µM (hPI3Kγ (PIK3CG)) [%] | inhibition at 1 µM [1] [%] | inhibition at 1 µM [2] [%] | IC50 (hPI3Kδ (PIK3CD/PIK3R1)) [µM] | IC50 (hPI3Kγ (PIK3CG)) [µM] | IC50 [1] [µM] | IC50 [2] [µM]
1 | COC(=O)c1ccc(Cn2cc(-c3cccc4c(=O)cc(N5CCOCC5)[nH]c34)nn2)cc1 [Compound 31, Methyl‐4‐{[4‐(2‐morpholino‐4‐oxo‐1,4‐dihydroquinolin‐8‐yl)‐1H‐1,2,3‐triazol‐1‐yl]methyl}benzoate] | < 50 | < 50 | < 50 | < 50 |  |  |  | 
2 | O=c1cc(N2CCOCC2)[nH]c2c(-c3cn(Cc4ccccc4)nn3)cccc12 [Compound 48, 8‐(1‐Benzyl‐1H‐1,2,3‐triazol‐4‐yl)‐2‐morpholinoquinolin‐4(1H)‐one] | > 50 | > 50 | < 50 | > 50 | 0.47 ± 0.26 | 1 ± 0.5 | 2.65 ± 0.8 | 0.1 ± 0.04
3 | O=C(O)c1ccc(-n2cc(-c3cccc4c(=O)cc(N5CCOCC5)[nH]c34)nn2)cc1 [Compound 45, 4‐[4‐(2‐Morpholino‐4‐oxo‐1,4‐dihydroquinolin‐8‐yl)‐1H‐1,2,3‐triazol‐1‐yl]benzoic acid] | > 50 | > 50 | > 50 | > 50 | 0.17 ± 0.1 | 0.3 ± 0.2 | 0.32 ± 0.2 | 0.3 ± 0.2
4 | NS(=O)(=O)c1ccc(-n2cc(-c3cccc4c(=O)cc(N5CCOCC5)[nH]c34)nn2)cc1 [Compound 50, 4‐[4‐(2‐Morpholino‐4‐oxo‐1,4‐dihydroquinolin‐8‐yl)‐1H‐1,2,3‐triazol‐1‐yl]benzenesulfonamide] | < 50 | < 50 | < 50 | < 50 |  |  |  | 
5 | O=C(O)c1cccc(-n2cc(-c3cccc4c(=O)cc(N5CCOCC5)[nH]c34)nn2)c1 [Compound 52, 3‐[4‐(2‐Morpholino‐4‐oxo‐1,4‐dihydroquinolin‐8‐yl)‐1H‐1,2,3‐triazol‐1‐yl]benzoic acid] | < 50 | < 50 | < 50 | < 50 |  |  |  | 
6 | O=c1cc(N2CCOCC2)[nH]c2c(-c3cn(-c4ccc(OC(F)(F)F)cc4)nn3)cccc12 [Compound 29, 2‐Morpholino‐8‐{1‐[4‐(trifluoromethoxy)phenyl]‐1H‐1,2,3‐triazol‐4‐yl}quinolin‐4(1H)‐one] | < 50 | < 50 | < 50 | < 50 |  |  |  | 
7 | O=c1cc(N2CCOCC2)[nH]c2c(-c3cn(-c4cnc5ccccc5c4)nn3)cccc12 [Compound 36, 2‐Morpholino‐8‐[1‐(quinolin‐3‐yl)‐1H‐1,2,3‐triazol‐4‐yl]quinolin‐4(1H)‐one] | < 50 | < 50 | < 50 | < 50 |  |  |  | 
8 | O=c1cc(N2CCOCC2)[nH]c2c(-c3cn(-c4cccc5ccccc45)nn3)cccc12 [Compound 53, 2‐Morpholino‐8‐[1‐(naphthalen‐1‐yl)‐1H‐1,2,3‐triazol‐4‐yl]quinolin‐4(1H)‐one] | < 50 | < 50 | < 50 | < 50 |  |  |  | 
9 | O=c1cc(N2CCOCC2)[nH]c2c(-c3cn(-c4ccc5ccccc5c4)nn3)cccc12 [Compound 34, 2‐Morpholino‐8‐[1‐(naphthalen‐2‐yl)‐1H‐1,2,3‐triazol‐4‐yl]quinolin‐4(1H)‐one] | < 50 | < 50 | < 50 | < 50 |  |  |  | 

Now from value to molecule:

Row | inhibition at 1 µM (hPI3Kδ (PIK3CD/PIK3R1)) [%] | inhibition at 1 µM (hPI3Kγ (PIK3CG)) [%] | inhibition at 1 µM [1] [%] | inhibition at 1 µM [2] [%] | IC50 (hPI3Kδ (PIK3CD/PIK3R1)) [µM] | IC50 (hPI3Kγ (PIK3CG)) [µM] | IC50 [1] [µM] | IC50 [2] [µM] | SMILES
10 | < 50 | < 50 | < 50 | < 50 |  |  |  |  | COc1ccc(-n2cc(-c3cccc4c(=O)cc(N5CCOCC5)[nH]c34)nn2)cc1OC [Compound 43, 8‐[1‐(3,4‐Dimethoxyphenyl)‐1H‐1,2,3‐triazol‐4‐yl]‐2‐morpholinoquinolin‐4(1H)‐one]
11 | < 50 | < 50 | < 50 | < 50 |  |  |  |  | COc1ccc(-n2cc(-c3cccc4c(=O)cc(N5CCOCC5)[nH]c34)nn2)cc1O [Compound 27, 8‐[1‐(3‐Hydroxy‐4‐methoxyphenyl)‐1H‐1,2,3‐triazol‐4‐yl]‐2‐morpholinoquinolin‐4(1H)‐one]
12 | < 50 | < 50 | < 50 | < 50 |  |  |  |  | COc1ccc(-n2cc(-c3cccc4c(=O)cc(N5CCOCC5)[nH]c34)nn2)cc1 [Compound 44, 8‐[1‐(4‐Methoxyphenyl)‐1H‐1,2,3‐triazol‐4‐yl]‐2‐morpholinoquinolin‐4(1H)‐one]
13 | > 50 | < 50 | < 50 | < 50 | 0.81 ± 0.36 | 4.2 ± 2.1 | 1.3 ± 0.7 | 9.3 ± 5.8 | COc1cccc(-n2cc(-c3cccc4c(=O)cc(N5CCOCC5)[nH]c34)nn2)c1 [Compound 35, 8‐[1‐(3‐Methoxyphenyl)‐1H‐1,2,3‐triazol‐4‐yl]‐2‐morpholinoquinolin‐4(1H)‐one]
14 | < 50 | < 50 | < 50 | < 50 |  |  |  |  | COc1cc(OC)cc(-n2cc(-c3cccc4c(=O)cc(N5CCOCC5)[nH]c34)nn2)c1 [Compound 47, 8‐[1‐(3,5‐Dimethoxyphenyl)‐1H‐1,2,3‐triazol‐4‐yl]‐2‐morpholinoquinolin‐4(1H)‐one]
15 | < 50 | < 50 | < 50 | < 50 |  |  |  |  | COC(=O)c1ccc(-n2cc(-c3cccc4c(=O)cc(N5CCOCC5)[nH]c34)nn2)cc1 [Compound 42, Methyl 4‐[4‐(2‐morpholino‐4‐oxo‐1,4‐dihydroquinolin‐8‐yl)‐1H‐1,2,3‐triazol‐1‐yl]benzoate]
